Assay results taken from article PMC8880564, “Design, Synthesis, and Biological Evaluation of a Novel VEGFR-2 Inhibitor Based on a 1,2,5-Oxadiazole-2-Oxide Scaffold with MAPK Signaling Pathway Inhibition” (Pharmaceuticals, 2022).

Assays:
Type in all cases: cell-based
[1] = system: A498; assay: NCI-60 one-dose SRB screening; settings: Homo sapiens, A498, Renal Cancer, 10 µM one dose, 48 h, read-out: growth percentage
[2] = system: ACHN; assay: NCI-60 one-dose SRB screening; settings: Homo sapiens, Renal Cancer, 10 µM one dose, 48 h, read-out: growth percentage
[3] = system: BT-549; assay: NCI-60 one-dose SRB screening; settings: Homo sapiens, BT-549, Breast Cancer, 10 µM one dose, 48 h, read-out: growth percentage
[4] = system: HOP-62; assay: NCI-60 one-dose SRB screening; settings: Homo sapiens, HOP-62, Non-Small Cell Lung Cancer, 10 µM one dose, 48 h, read-out: growth percentage
[5] = system: HT29; assay: NCI-60 one-dose SRB screening; settings: Homo sapiens, HT-29, HT29, Colon Cancer, 10 µM one dose, 48 h, read-out: growth percentage
[6] = system: IGROV1; assay: NCI-60 one-dose SRB screening; settings: Homo sapiens, IGROV-1, IGROV1, Ovarian Cancer, 10 µM one dose, 48 h, read-out: growth percentage
[7] = system: LOX IMVI; assay: NCI-60 one-dose SRB screening; settings: Homo sapiens, Melanoma, 10 µM one dose, 48 h, read-out: growth percentage
[8] = system: M14; assay: NCI-60 one-dose SRB screening; settings: Homo sapiens, M14, Melanoma, 10 µM one dose, 48 h, read-out: growth percentage
[9] = system: MCF7; assay: NCI-60 one-dose SRB screening; settings: Homo sapiens, MCF7, Breast Cancer, 10 µM one dose, 48 h, read-out: growth percentage
[10] = system: MDA-MB-468; assay: NCI-60 one-dose SRB screening; settings: Homo sapiens, MDA-MB-468, Breast Cancer, 10 µM one dose, 48 h, read-out: growth percentage
[11] = system: MOLT-4; assay: NCI-60 one-dose SRB screening; settings: Homo sapiens, MOLT-4, Leukemia, 10 µM one dose, 48 h, read-out: growth percentage
[12] = system: NCI-H322M; assay: NCI-60 one-dose SRB screening; settings: Homo sapiens, Non-Small Cell Lung Cancer, 10 µM one dose, 48 h, read-out: growth percentage
[13] = system: NCI-H522; assay: NCI-60 one-dose SRB screening; settings: Homo sapiens, NCI-H522, Non-Small Cell Lung Cancer, 10 µM one dose, 48 h, read-out: growth percentage
[14] = system: NCI/ADR-RES; assay: NCI-60 one-dose SRB screening; settings: Homo sapiens, Ovarian Cancer, 10 µM one dose, 48 h, read-out: growth percentage
[15] = system: OVCAR-8; assay: NCI-60 one-dose SRB screening; settings: Homo sapiens, OVCAR-8, Ovarian Cancer, 10 µM one dose, 48 h, read-out: growth percentage
[16] = system: SK-MEL-2; assay: NCI-60 one-dose SRB screening; settings: Homo sapiens, SK-MEL-2, Melanoma, 10 µM one dose, 48 h, read-out: growth percentage
[17] = system: SK-OV-3; assay: NCI-60 one-dose SRB screening; settings: Homo sapiens, SK-OV-3, Ovarian Cancer, 10 µM one dose, 48 h, read-out: growth percentage
[18] = system: SN12C; assay: NCI-60 one-dose SRB screening; settings: Homo sapiens, Renal Cancer, 10 µM one dose, 48 h, read-out: growth percentage
[19] = system: SNB-19; assay: NCI-60 one-dose SRB screening; settings: Homo sapiens, SNB-19, CNS Cancer, 10 µM one dose, 48 h, read-out: growth percentage
[20] = system: SW-620; assay: NCI-60 one-dose SRB screening; settings: Homo sapiens, SW-620, Colon Cancer, 10 µM one dose, 48 h, read-out: growth percentage
[21] = system: T-47D; assay: NCI-60 one-dose SRB screening; settings: Homo sapiens, T47D, Breast Cancer, 10 µM one dose, 48 h, read-out: growth percentage
[22] = system: NCI-59 human cancer cell lines; assay: NCI-60 one-dose SRB screening, full panel and subpanels; settings: Homo sapiens; mean over the full panel; 10 µM one dose, 48 h, SRB; read-out: growth percentage, Mean

Nc1ccc(NCc2c(-c3ccccc3)no[n+]2[O-])cc1 [compound 11, 3-(((4-aminophenyl)amino)methyl)-4-phenyl-1,2,5-oxadiazole 2-oxide]
activity at 10 µM [1]: 108% | activity at 10 µM [2]: 104% | activity at 10 µM [3]: 103% | activity at 10 µM [4]: 136% | activity at 10 µM [5]: 111% | activity at 10 µM [6]: 88.7% | activity at 10 µM [7]: 107% | activity at 10 µM [8]: 102% | activity at 10 µM [9]: 85.5% | activity at 10 µM [10]: 85.3% | activity at 10 µM [11]: 91.8% | activity at 10 µM [12]: 103% | activity at 10 µM [13]: 93.5% | activity at 10 µM [14]: 104% | activity at 10 µM [15]: 131% | activity at 10 µM [16]: 105% | activity at 10 µM [17]: 105% | activity at 10 µM [18]: 109% | activity at 10 µM [19]: 110% | activity at 10 µM [20]: 115% | activity at 10 µM [21]: 101% | activity at 10 µM [22]: 107%
